For 20 compounds, IC50 results are on record in patent US10040781B2, “Tank-binding kinase inhibitor compounds” (Gilead Sciences, Inc., priority 2014, dated 2018).

As usually defined, the IC50 is the point on the concentration scale where inhibition reaches its midpoint.

One assay has as its target IKKε (Homo sapiens (Human), UniProt Q14164). The assay is described as follows: IKKε TR-FRET enzymatic assay. It is filed as biochemical. The note with it: TR-FRET, 2×Km ATP; geometric mean of minimum four determinations; read-out: IKKe IC50. Background: In TR-FRET formats the signal depends on donor and acceptor labels being close together.
Another assay addresses hJAK2 (Homo sapiens (Human), UniProt O60674). The assay is described as follows: hJAK2 LANCE TR-FRET enzymatic assay. It is filed as biochemical. The conditions noted are these: read-out: JAK2 IC50.
The next assay has as its target TBK1 (Homo sapiens (Human), UniProt Q9UHD2). Put plainly: TBK1 TR-FRET enzymatic assay.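 Also: phosphorylation of a biotinylated Ser/Thr peptide by purified full-length recombinant TBK1, read by TR-FRET after 240 min at 25 °C, IC50 is the geometric mean of at least four runs.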

Chain of TBK1 (Q9UHD2 whole entry): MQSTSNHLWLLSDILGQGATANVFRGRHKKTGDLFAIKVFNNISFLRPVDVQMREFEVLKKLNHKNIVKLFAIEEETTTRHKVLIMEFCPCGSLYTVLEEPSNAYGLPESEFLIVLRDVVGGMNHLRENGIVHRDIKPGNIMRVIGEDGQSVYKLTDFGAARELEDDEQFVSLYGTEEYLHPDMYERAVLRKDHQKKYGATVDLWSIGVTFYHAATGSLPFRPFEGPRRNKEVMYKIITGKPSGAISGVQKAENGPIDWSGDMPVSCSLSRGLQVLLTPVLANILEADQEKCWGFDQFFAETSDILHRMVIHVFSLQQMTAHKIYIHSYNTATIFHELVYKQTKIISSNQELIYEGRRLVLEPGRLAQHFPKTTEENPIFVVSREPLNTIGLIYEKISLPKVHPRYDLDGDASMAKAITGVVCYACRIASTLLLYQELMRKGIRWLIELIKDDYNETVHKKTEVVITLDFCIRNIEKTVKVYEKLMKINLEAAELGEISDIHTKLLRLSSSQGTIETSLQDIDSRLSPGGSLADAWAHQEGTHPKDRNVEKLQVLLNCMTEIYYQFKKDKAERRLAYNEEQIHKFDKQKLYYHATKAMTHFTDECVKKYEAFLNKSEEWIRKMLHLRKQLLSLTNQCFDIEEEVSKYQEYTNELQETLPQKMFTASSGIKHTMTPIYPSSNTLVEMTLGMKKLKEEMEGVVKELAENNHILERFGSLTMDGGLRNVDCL
Chain of IKKε (Q14164 whole entry): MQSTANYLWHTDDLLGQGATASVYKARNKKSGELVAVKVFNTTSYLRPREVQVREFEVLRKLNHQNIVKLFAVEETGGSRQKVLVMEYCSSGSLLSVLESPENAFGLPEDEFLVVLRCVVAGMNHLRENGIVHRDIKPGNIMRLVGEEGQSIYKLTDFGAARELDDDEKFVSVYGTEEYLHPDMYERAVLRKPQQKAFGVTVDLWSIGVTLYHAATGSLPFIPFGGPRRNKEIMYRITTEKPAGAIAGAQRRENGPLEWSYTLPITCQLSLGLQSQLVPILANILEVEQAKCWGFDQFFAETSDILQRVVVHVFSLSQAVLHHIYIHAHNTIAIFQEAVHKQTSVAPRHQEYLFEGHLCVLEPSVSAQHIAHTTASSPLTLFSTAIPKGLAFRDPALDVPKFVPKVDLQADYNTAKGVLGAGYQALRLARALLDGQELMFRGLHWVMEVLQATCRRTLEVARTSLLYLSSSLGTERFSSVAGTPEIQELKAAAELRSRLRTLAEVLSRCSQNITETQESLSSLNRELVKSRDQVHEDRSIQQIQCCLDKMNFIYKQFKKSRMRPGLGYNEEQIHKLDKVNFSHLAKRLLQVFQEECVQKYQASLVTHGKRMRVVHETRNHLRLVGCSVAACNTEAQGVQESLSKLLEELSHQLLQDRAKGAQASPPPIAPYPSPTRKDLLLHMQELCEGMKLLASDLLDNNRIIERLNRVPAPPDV
Chain of hJAK2 (O60674 whole entry): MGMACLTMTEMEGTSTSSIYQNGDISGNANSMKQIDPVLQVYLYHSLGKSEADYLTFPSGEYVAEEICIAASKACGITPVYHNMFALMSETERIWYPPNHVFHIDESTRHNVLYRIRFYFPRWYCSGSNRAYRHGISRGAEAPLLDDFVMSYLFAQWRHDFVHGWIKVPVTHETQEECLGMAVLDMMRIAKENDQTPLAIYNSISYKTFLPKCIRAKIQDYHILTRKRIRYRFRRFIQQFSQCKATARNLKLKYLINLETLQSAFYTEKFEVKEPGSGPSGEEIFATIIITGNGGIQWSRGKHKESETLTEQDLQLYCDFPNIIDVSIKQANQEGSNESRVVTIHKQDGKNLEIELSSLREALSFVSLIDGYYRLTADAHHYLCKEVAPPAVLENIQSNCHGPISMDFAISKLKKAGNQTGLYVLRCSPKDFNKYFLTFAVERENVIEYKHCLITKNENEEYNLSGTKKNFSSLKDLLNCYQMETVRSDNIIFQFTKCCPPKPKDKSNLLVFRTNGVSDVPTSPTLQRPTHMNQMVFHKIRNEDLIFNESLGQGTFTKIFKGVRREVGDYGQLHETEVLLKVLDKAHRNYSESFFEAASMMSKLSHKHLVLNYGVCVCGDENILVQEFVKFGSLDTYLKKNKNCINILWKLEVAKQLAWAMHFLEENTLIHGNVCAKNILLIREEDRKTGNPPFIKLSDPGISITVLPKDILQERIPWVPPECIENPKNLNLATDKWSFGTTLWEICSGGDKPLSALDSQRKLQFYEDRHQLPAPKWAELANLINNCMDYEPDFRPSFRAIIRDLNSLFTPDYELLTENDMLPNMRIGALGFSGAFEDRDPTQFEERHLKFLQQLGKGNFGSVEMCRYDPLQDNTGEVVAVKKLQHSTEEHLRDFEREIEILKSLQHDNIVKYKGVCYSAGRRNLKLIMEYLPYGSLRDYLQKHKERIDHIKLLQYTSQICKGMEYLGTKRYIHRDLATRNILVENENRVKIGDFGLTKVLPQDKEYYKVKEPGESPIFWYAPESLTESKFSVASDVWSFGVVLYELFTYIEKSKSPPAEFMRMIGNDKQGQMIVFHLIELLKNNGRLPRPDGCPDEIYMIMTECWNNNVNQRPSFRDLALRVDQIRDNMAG

For the compound `C[C@H](O)C(=O)N1C[C@@H](F)[C@@H](Oc2ccc(-c3ncnc(Nc4ccc(N5CCN(C6COC6)CC5)cc4)n3)cc2C#N)C[C@@H]1C` [Example 415, 2-(((2S,4S,5R)-5-fluoro-1-((S)-2-hydroxypropanoyl)-2-methylpiperidin-4-yl)oxy)-5-(4-((4-(4-(oxetan-3-yl)piperazin-1-yl)phenyl)amino)-1,3,5-triazin-2-yl)benzonitrile], the results for the half-maximal inhibitory concentration (IC50) at IKKε, at hJAK2 and against TBK1 were 142 nM, not below 1000 nM and 58 nM, respectively.

In the case of `N#CCCC(=O)N1CC[C@H](Oc2ccc(-c3ncnc(Nc4ccc(N5CCN(C6COC6)CC5)cc4)n3)cc2C#N)[C@H](F)C1` [Example 417, 2-(((3R,4S)-1-(3-cyanopropanoyl)-3-fluoropiperidin-4-yl)oxy)-5-(4-((4-(4-(oxetan-3-yl)piperazin-1-yl)phenyl)amino)-1,3,5-triazin-2-yl)benzonitrile], the IC50 on IKKε was determined as 79 nM; on hJAK2, 694 nM; against TBK1, 17 nM.

Turning to `Cc1nnc(C(=O)N2CC[C@H](Oc3ccc(-c4ncnc(Nc5cnn(C(C)(C)C)c5)n4)cc3C#N)[C@H](F)C2)[nH]1` [Example 418, 5-(4-((1-(tert-butyl)-1H-pyrazol-4-yl)amino)-1,3,5-triazin-2-yl)-2-(((3R,4S)-3-fluoro-1-(5-methyl-4H-1,2,4-triazole-3-carbonyl)piperidin-4-yl)oxy)benzonitrile], the IC50 on IKKε turned out to be 2 nM; at hJAK2, 212 nM; against TBK1 it was 4 nM.

With `CC(C)(C)n1cc(Nc2ncnc(-c3ccc(O[C@H]4CCN(C(=O)[C@@H](O)CO)C[C@H]4F)c(C#N)c3)n2)cn1` [Example 419, 5-(4-((1-(tert-butyl)-1H-pyrazol-4-yl)amino)-1,3,5-triazin-2-yl)-2-(((3R,4S)-1-((S)-2,3-dihydroxypropanoyl)-3-fluoropiperidin-4-yl)oxy)benzonitrile], the figures for the half-inhibitory concentration (IC50) on IKKε, at hJAK2 and against TBK1 were 2 nM, 228 nM and 2 nM, respectively.

As for `CC(C)(C)n1cc(Nc2ncnc(-c3ccc(O[C@H]4CCN(C(=O)CO)C[C@H]4F)c(C#N)c3)n2)cn1` [Example 420, 5-(4-((1-(tert-butyl)-1H-pyrazol-4-yl)amino)-1,3,5-triazin-2-yl)-2-(((3R,4S)-3-fluoro-1-(2-hydroxyacetyl)piperidin-4-yl)oxy)benzonitrile], the IC50 at IKKε is 2 nM; at hJAK2 it was 190 nM; against TBK1, 2 nM.

In the case of `CN1CC(Oc2ccc(-c3ncnc(Nc4ccc(N5CCN(C6COC6)CC5)cc4)n3)cc2C#N)CNC1=O` (stereo not drawn) [Example 421, 2-((1-methyl-2-oxohexahydropyrimidin-5-yl)oxy)-5-(4-((4-(4-(oxetan-3-yl)piperazin-1-yl)phenyl)amino)-1,3,5-triazin-2-yl)benzonitrile], the IC50 came to 156 nM at IKKε, 60 nM at hJAK2 and 80 nM against TBK1.

`CN1CC(Oc2ccc(-c3ncnc(Nc4ccc(N5CCN(C6COC6)CC5)cc4)n3)cc2C#N)CCC1=O` (stereo not drawn) [Example 422, 2-((1-methyl-6-oxopiperidin-3-yl)oxy)-5-(4-((4-(4-(oxetan-3-yl)piperazin-1-yl)phenyl)amino)-1,3,5-triazin-2-yl)benzonitrile]: the results for the IC50 on IKKε, on hJAK2 and against TBK1 were 156 nM, 849 nM and 65 nM, respectively.

`N#Cc1cc(-c2ncnc(Nc3ccc(N4CCN(C5COC5)CC4)cc3)n2)ccc1O[C@H]1CCN(C(=O)N2CC[C@@H](F)C2)C[C@H]1F` [Example 423, 2-(((3R,4S)-3-fluoro-1-((R)-3-fluoropyrrolidine-1-carbonyl)piperidin-4-yl)oxy)-5-(4-((4-(4-(oxetan-3-yl)piperazin-1-yl)phenyl)amino)-1,3,5-triazin-2-yl)benzonitrile]: the IC50 came to 55 nM on IKKε, 681 nM on hJAK2 and 16 nM at TBK1.

As for `N#Cc1cc(-c2ncnc(Nc3ccc(N4CCN(C5COC5)CC4)cc3)n2)ccc1O[C@H]1CCN(C(=O)N2CCCC2)C[C@H]1F` [Example 424, 2-(((3R,4S)-3-fluoro-1-(pyrrolidine-1-carbonyl)piperidin-4-yl)oxy)-5-(4-((4-(4-(oxetan-3-yl)piperazin-1-yl)phenyl)amino)-1,3,5-triazin-2-yl)benzonitrile], the IC50 at IKKε is 12 nM; on hJAK2, not below 1000 nM; at TBK1, 6 nM.

In the case of `N#Cc1cc(-c2ncnc(Nc3ccc(N4CCN(C5COC5)CC4)cc3)n2)ccc1O[C@H]1CCN(C(=O)N2CC[C@@H](O)C2)C[C@H]1F` [Example 425, 2-(((3R,4S)-3-fluoro-1-((R)-3-hydroxypyrrolidine-1-carbonyl)piperidin-4-yl)oxy)-5-(4-((4-(4-(oxetan-3-yl)piperazin-1-yl)phenyl)amino)-1,3,5-triazin-2-yl)benzonitrile], the IC50 on IKKε came to 21 nM; on hJAK2 it was 590 nM; at TBK1 it was 7 nM.

As for `N#Cc1cc(-c2ncnc(Nc3ccc(N4CCN(C5COC5)CC4)cc3)n2)ccc1O[C@H]1CCN(C(=O)N2CC[C@H](O)C2)C[C@H]1F` [Example 426, 2-(((3R,4S)-3-fluoro-1-((S)-3-hydroxypyrrolidine-1-carbonyl)piperidin-4-yl)oxy)-5-(4-((4-(4-(oxetan-3-yl)piperazin-1-yl)phenyl)amino)-1,3,5-triazin-2-yl)benzonitrile], the results for the IC50 at IKKε, at hJAK2 and at TBK1 were 201 nM, not below 1000 nM and 79 nM, respectively.

Turning to `COCCNC(=O)N1CC[C@H](Oc2ccc(-c3ncnc(Nc4ccc(N5CCN(C6COC6)CC5)cc4)n3)cc2C#N)[C@H](F)C1` [Example 427, (3R,4S)-4-(2-cyano-4-(4-((4-(4-(oxetan-3-yl)piperazin-1-yl)phenyl)amino)-1,3,5-triazin-2-yl)phenoxy)-3-fluoro-N-(2-methoxyethyl)piperidine-1-carboxamide], the IC50 at IKKε is 74 nM; on hJAK2 it was not below 1000 nM; at TBK1, 31 nM.

On to `CN(CCO)C(=O)N1CC[C@H](Oc2ccc(-c3ncnc(Nc4ccc(N5CCN(C6COC6)CC5)cc4)n3)cc2C#N)[C@H](F)C1` [Example 428, (3R,4S)-4-(2-cyano-4-(4-((4-(4-(oxetan-3-yl)piperazin-1-yl)phenyl)amino)-1,3,5-triazin-2-yl)phenoxy)-3-fluoro-N-(2-hydroxyethyl)-N-methylpiperidine-1-carboxamide], for which the results for the half-maximal inhibitory concentration (IC50) at IKKε, on hJAK2 and on TBK1 were 64 nM, not below 1000 nM and 41 nM, respectively.

`N#Cc1cc(-c2ncnc(Nc3ccc(N4CCN(C5COC5)CC4)cc3)n2)ccc1O[C@H]1CCN(C(=O)NCCO)C[C@H]1F` [Example 429, (3R,4S)-4-(2-cyano-4-(4-((4-(4-(oxetan-3-yl)piperazin-1-yl)phenyl)amino)-1,3,5-triazin-2-yl)phenoxy)-3-fluoro-N-(2-hydroxyethyl)piperidine-1-carboxamide]: the IC50 on IKKε was 33 nM; at hJAK2, 601 nM; against TBK1 it was 12 nM.

Consider `C[C@H](O)C(=O)N1C[C@@H](C)[C@H](Oc2ccc(-c3ncnc(Nc4ccc(N5CCN(C6COC6)CC5)cc4)n3)cc2C#N)C(F)(F)C1` [Example 431, trans-2-((3,3-difluoro-1-((S)-2-hydroxypropanoyl)-5-methylpiperidin-4-yl)oxy)-5-(4-((4-(4-(oxetan-3-yl)piperazin-1-yl)phenyl)amino)-1,3,5-triazin-2-yl)benzonitrile], for which the IC50 on IKKε turned out to be 17 nM; on hJAK2 it was 496 nM; against TBK1 it was 11 nM.

As for `C[C@@H](N)C(=O)N1CC[C@H](Oc2ccc(-c3ncnc(Nc4ccc(N5CCN(C6COC6)CC5)cc4)n3)cc2C#N)[C@H](F)C1` [Example 433, 2-(((3R,4S)-1-((R)-2-aminopropanoyl)-3-fluoropiperidin-4-yl)oxy)-5-(4-((4-(4-(oxetan-3-yl)piperazin-1-yl)phenyl)amino)-1,3,5-triazin-2-yl)benzonitrile], the IC50 at IKKε is 283 nM; on hJAK2, not below 1000 nM; against TBK1 it was 76 nM.

Regarding `N#Cc1cc(-c2ncnc(Nc3ccc(N4CCN(C5COC5)CC4)cc3)n2)ccc1O[C@@H]1CCN(C(=O)c2nc(=O)[nH][nH]2)C1` [Example 435, (R)-5-(4-((4-(4-(oxetan-3-yl)piperazin-1-yl)phenyl)amino)-1,3,5-triazin-2-yl)-2-((1-(5-oxo-2,5-dihydro-1H-1,2,4-triazole-3-carbonyl)pyrrolidin-3-yl)oxy)benzonitrile], the values for the IC50 on IKKε, at hJAK2 and against TBK1 were 292 nM, not below 1000 nM and 411 nM, respectively.

`CC1(C)CNC[C@@H](F)[C@H]1Oc1ccc(-c2ncnc(Nc3ccc(N4CCN(C5COC5)CC4)cc3)n2)cc1C#N` [Example 440, 2-(((4S,5R)-5-fluoro-3,3-dimethylpiperidin-4-yl)oxy)-5-(4-((4-(4-(oxetan-3-yl)piperazin-1-yl)phenyl)amino)-1,3,5-triazin-2-yl)benzonitrile]: the results for the IC50 on IKKε, at hJAK2 and against TBK1 were 51 nM, 110 nM and 22 nM, respectively.

In the case of `Cn1cc(C(=O)N2C[C@@H](F)[C@@H](Oc3ccc(-c4ncnc(Nc5ccc(N6CCN(C7COC7)CC6)cc5)n4)cc3C#N)C(C)(C)C2)nn1` [Example 441, 2-(((4S,5R)-5-fluoro-3,3-dimethyl-1-(1-methyl-1H-1,2,3-triazole-4-carbonyl)piperidin-4-yl)oxy)-5-(4-((4-(4-(oxetan-3-yl)piperazin-1-yl)phenyl)amino)-1,3,5-triazin-2-yl)benzonitrile], the IC50 on IKKε was determined as 2 nM; on hJAK2, 88 nM; against TBK1 it was 3 nM.

As for `CC1(C)CN(C(=O)c2ccn[nH]2)C[C@@H](F)[C@H]1Oc1ccc(-c2ncnc(Nc3ccc(N4CCN(C5COC5)CC4)cc3)n2)cc1C#N` [Example 442, 2-(((4S,5R)-5-fluoro-3,3-dimethyl-1-(1H-pyrazole-5-carbonyl)piperidin-4-yl)oxy)-5-(4-((4-(4-(oxetan-3-yl)piperazin-1-yl)phenyl)amino)-1,3,5-triazin-2-yl)benzonitrile], the IC50 at IKKε worked out at 3 nM; on hJAK2, 125 nM; on TBK1 it was 3 nM.
